{"source": "patent US20250269046A1", "about": "“CELLULAR UPTAKE OF LARGE BIOMOLECULES ENABLED BY CELL-SURFACE-REACTIVE CELL-PENETRATING PEPTIDE ADDITIVES” (FORSCHUNGSVERBUND BERLIN E.V., priority 2021, published 2025)", "type_in_all_cases": "cell-based", "key": {"HeLa cells": {"system": "HeLa cells", "assay": "Delivery of NLS-mCherry-R10 with hydrophobic CPP additives, spinning disk microscopy", "procedure": "Experimental Procedure: HeLa cells seeded onto 96-well glass-bottom plates were treated with 5 μM or 1 μM Mal-PEG2-R10 or Mal-PEG2-R10-ILFF, followed by the addition of NLS-mCherry-R10 (final concentration=5 μM or 2.5 μM). The treated cells were incubated for 1 h at 37° C. with 5% CO2. After incubation, the cells were washed with phosphate buffered saline (PBS). The nucleus was counterstained using Hoechst 33342. Imaging was performed using Nikon-CSU spinning disk microscopy. Scale bars=20 μm. […] This may result from interaction of hydrophobic amino acid (such as, e.g., Leu, Ile, Phe, and Trp) moieties on the CPP additive with the membrane. Insertion of the side chains between membrane lipids may influence the local packing state of the membrane resulting in loose packing areas where CPP-cargoes could enter more efficiently.\nExperimental Procedure: The experiments were carried out with Mal-PEG2-R10-fluorous tag, and Mal-PEG2-R10 as reference. The sequence of Mal-PEG2-R10 is described in Example 6. HeLa cells seeded onto 96-well glass-bottom plates were treated with 2.5 or 5 μM of Mal-PEG2-R10 or 2.5 μM or Mal-PEG2-R10-fluorous tag, followed by the addition of NLS-mCherry-R10 (final concentration=5 μM). The treated cells were incubated for 1 h at 37° C. with 5% CO2. After incubation, the cells were washed with phosphate buffered saline (PBS). The nucleus was counterstained using Hoechst 33342. Imaging was performed using Nikon-CSU spinning disk microscopy. Scale bars=20 μm."}, "HeLa Kyoto cells": {"system": "HeLa Kyoto cells", "assay": "Cellular uptake of CPP-bearing cargoes with or without unbound CPP additive, confocal microscopy", "settings": "1 μM, 1 hour in cell culture medium, 4 and 37° C.", "description": "To evaluate the concentration, temperature and cargo-size dependency of added arginine-rich peptides to mediate cytosolic delivery, the inventors chose three distinct cargoes to transport: the organic fluorophore Tetramethylrhodamine (TAMRA, ˜450 Da), the camelid-derived anti-GFP nanobody GBP1 (˜14 kDa) and the fluorescent protein mCherry with a nuclear localization signal (NLS-mCherry, ˜28 kDa). […] We then applied all of the synthesized cargoes to HeLa Kyoto cells (expressing nuclear GFP-PCNA (Leonhardt, H. et al. Dynamics of DNA replication factories in living cells. J Cell Biol 149, 271-280, doi:10.1083/jcb.149.2.271 (2000). Chagin, V. O. et al. 4D Visualization of replication foci in mammalian cells corresponding to individual replicons. Nat Commun 7, 11231, doi:10.1038/ncomms11231 (2016)) as antigen for the nanobody), at both 37 and 4° C.\nFor microscopy experiments, 20′000 cells (10′000 in the case of the GFP-PCNA HeLa Kyoto cell line^7) were seeded into the wells of a 96-well glass bottom plate. The cells were left to adhere and grow for 24 hours at 37° C. with 5% CO2. For 37° C. experiments, the cells were washed once with DMEM before addition of the protein samples in DMEM. The cells were incubated for 1 hour at 37° C. The cells were then washed three times with DMEM with 10% fetal bovine serum (FBS). Cells were generally imaged live with incubation at 37° C. and 5% CO2. For the quantitative microscopy experiments, the cells were fixed using 4% PFA in PBS for 30 minutes at room temperature after washing.\nFor 4° C. experiments, the cells were pre-chilled at 4° C. for 1 hour. The cells were then washed with cold DMEM and the proteins were added in cold DMEM to the cells. The cells were incubated at 4° C. for 1 hour. Afterwards, the cells were washed thrice with cold DMEM with 10% FBS, before fixation with 4% PFA in PBS for 30 minutes at room temperature.\nConfocal microscopy images were acquired on a Nikon-CSU spinning disc microscope with an CSU—X1 (Andor) and a live cell incubation chamber (OKOlab)."}, "HeLa CCL-2 cells": {"system": "HeLa CCL-2 cells", "assay": "Cellular uptake of Atto488-labelled IgG antibody with TNB-R10", "settings": "500 nM", "procedure": "Antibodies are exceptionally useful proteins in molecular biology and pharmacology, targeting most of the human proteome. […] Some methods to deliver full length antibodies into cells already exist, although they mostly rely on endosomal escape (Erazo-Oliveras, A. et al. Protein delivery into live cells by incubation with an endosomolytic agent. Nat Methods 11, 861-867, doi:10.1038/nmeth.2998 (2014). Akishiba, M. et al. Cytosolic antibody delivery by lipid-sensitive endosomolytic peptide. Nature Chemistry, doi:10.1038/nchem.2779 (2017)). To test whether it is possible to deliver a full-length IgG antibody into cells at 4° C., the inventors first used the fluorescently labeled therapeutic antibody Brentuximab. Thiolation was performed with 2-iminothiolane (Jue, R., Lambert, J. M., Pierce, L. R. & Traut, R. R. Addition of sulfhydryl groups to Escherichia coli ribosomes by protein modification with 2-iminothiolane (methyl 4-mercaptobutyrimidate). Biochemistry 17, 5399-5406, doi:10.1021/bi00618a013 (1978)). As before, by addition of peptide 5, the antibody can be modified with the cell-penetrating peptide via a disulfide bond, while the excess cell-penetrating peptide should simultaneously aid in the cellular uptake (FIG. 5a).\nA list of antibodies can be found in table 2. Antibodies were used at a 0.5 mg/mL concentration ([…]). The anti-GFP antibody was purchased as a fluorophore conjugate. The Brentuximab and anti-TOMM20 antibody were first labelled fluorescently using 8 equivalents of NHS-Atto488 (Atto-Tec GmbH) for 1 hour at room temperature before purification via gel filtration on a superpose 6 column. All antibodies were then modified with 25 equivalents of Traut's reagent (2-Iminothiolane) for 1 hour at room temperature. Excess reagent was removed using a desalting column. Then, 20 equivalents of TNB-R10 were added immediately and the antibodies were incubated in the fridge until use. The antibodies were diluted to 500 nM in DMEM before cell experiments."}, "[1]": {"settings": "2.5 μM additive, 5 μM NLS-mCherry-R10, 1 h 37° C."}}, "note": "* marks the point of attachment. Maleimidoacetyl = O=C1C=CC(=O)N1CC(=O)*; AEEA = NCCOCCOCC(=O)O", "data": [{"molecule": "Maleimidoacetic acid-PEG*-RRRRRRRRRRGGILFF-Amide ({Maleimidoacetyl-AEEA-AEEA}-RRRRRRRRRRGGILFF-NH2; SMILES CC[C@H](C)[C@H](NC(=O)CNC(=O)CNC(=O)[C@H](CCCNC(=N)N)NC(=O)[C@H](CCCNC(=N)N)NC(=O)[C@H](CCCNC(=N)N)NC(=O)[C@H](CCCNC(=N)N)NC(=O)[C@H](CCCNC(=N)N)NC(=O)[C@H](CCCNC(=N)N)NC(=O)[C@H](CCCNC(=N)N)NC(=O)[C@H](CCCNC(=N)N)NC(=O)[C@H](CCCNC(=N)N)NC(=O)[C@H](CCCNC(=N)N)NC(=O)COCCOCCNC(=O)COCCOCCNC(=O)CN1C(=O)C=CC1=O)C(=O)N[C@@H](CC(C)C)C(=O)N[C@@H](Cc1ccccc1)C(=O)N[C@@H](Cc1ccccc1)C(N)=O) [Mal-PEG2-R10-ILFF]", "values": [{"measurement": "delivery at decreased concentrations", "setting": "HeLa cells; 1 μM CPP additive, 2.5 μM NLS-mCherry-R10", "result": "Decreasing the treatment concentrations of both the CPP additive and cargo protein is possible"}, {"measurement": "nucleolar staining vs Mal-PEG2-R10 reference", "setting": "HeLa cells; 5 μM CPP additive, 5 μM NLS-mCherry-R10, 1 h 37° C.", "result": "better nucleolar staining"}]}, {"molecule": "CN(C)c1ccc2c(-c3ccc(C(=O)N[C@H]4CCCCNC(=O)CC[C@@H](C(N)=O)NC(=O)[C@@H](CCCNC(=N)N)NC(=O)[C@H](CCCNC(=N)N)NC(=O)[C@@H](CCCNC(=N)N)NC(=O)[C@H](CCCNC(=N)N)NC(=O)[C@@H](CCCNC(=N)N)NC(=O)[C@H](CCCNC(=N)N)NC(=O)[C@@H](CCCNC(=N)N)NC(=O)[C@H](CCCNC(=N)N)NC(=O)[C@@H](CCCNC(=N)N)NC(=O)[C@H](CCCNC(=N)N)NC4=O)cc3C(=O)O)c3ccc(=[N+](C)C)cc-3oc2c1", "note": "[TAMRA-cR10]", "values": [{"measurement": "localization of the red fluorophore after uptake", "setting": "HeLa Kyoto cells", "result": "cytosolic (and nucleolar) localization"}]}, {"molecule": "Brentuximab: fluorescently labeled (Atto488) therapeutic full-length IgG antibody, thiolated and mixed with TNB-R10", "values": [{"measurement": "cellular uptake of antibody", "setting": "HeLa CCL-2 cells; absence of CPP-additive 5, 37° C.", "result": "not in the absence of CPP-additive 5"}, {"measurement": "fluorescent signal in the nucleus", "setting": "HeLa CCL-2 cells; with CPP-additive 5", "result": "could not be observed in the nucleus"}, {"measurement": "cellular uptake of antibody", "setting": "HeLa CCL-2 cells; with CPP-additive 5, 4° C.", "result": "antibody uptake could also be observed in most cells"}, {"measurement": "cellular uptake of antibody", "setting": "HeLa CCL-2 cells; with CPP-additive 5, 37° C.", "result": "cellular delivery"}]}, {"molecule": "Mal-PEG2-R10-fluorous tag: Mal-PEG2-R10 with a perfluoroalkyl (fluorous) tag on a C-terminal lysine side chain ({Maleimidoacetic acid-AEEA-AEEA}-RRRRRRRRRRK-NH2; not fully specified (residue 11); printed as Mal-PEG2-R10-fluorous tag)", "values": [{"measurement": "uptake compared with reference additive", "setting": "HeLa cells; 2.5 μM additive, 5 μM NLS-mCherry-R10", "result": "visually similar to treating cells with 10 μM of Mal-PEG2-R10"}, {"measurement": "uptake of NLS-mCherry-R10", "setting": "HeLa cells; [1]", "result": "good NLS-mCherry-R10 uptake"}]}, {"molecule": "Maleimidoacetic acid-PEG*-RRRRRRRRRR-Amide ({Maleimidoacetyl-AEEA-AEEA}-RRRRRRRRRR-NH2; SMILES N=C(N)NCCC[C@H](NC(=O)[C@H](CCCNC(=N)N)NC(=O)[C@H](CCCNC(=N)N)NC(=O)[C@H](CCCNC(=N)N)NC(=O)[C@H](CCCNC(=N)N)NC(=O)[C@H](CCCNC(=N)N)NC(=O)[C@H](CCCNC(=N)N)NC(=O)[C@H](CCCNC(=N)N)NC(=O)[C@H](CCCNC(=N)N)NC(=O)[C@H](CCCNC(=N)N)NC(=O)COCCOCCNC(=O)COCCOCCNC(=O)CN1C(=O)C=CC1=O)C(N)=O) [peptide 14]", "values": [{"measurement": "uptake of NLS-mCherry-R10", "setting": "HeLa cells; [1]", "result": "unfavorable uptake of NLS-mCherry"}]}]}
